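Five compound concentrations were applied to cells in 96-well plates for 48 hours; endpoints were derived by simple linear interpolation of the resulting dose-response curve. At the TGI there is no net growth.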 Where a SMILES comes first, the peptide text is derived from it. [ ]: non-standard residue; d: D form. Ava = NCCCCC(=O)O; Mpa = O=C(O)CCS
Legend:
Assay in all cases: NCI tumour cell line growth inhibition, 48 h
DLD-1 colon = tested on: DLD-1 colon
SNB-78 CNS = tested on: SNB-78 CNS
UO-31 renal = tested on: UO-31 renal
M19-MEL melanoma = tested on: M19-MEL melanoma
KM20L2 colon = tested on: KM20L2 colon
XF 498 CNS = tested on: XF 498 CNS
COLO 205 colon = tested on: COLO 205 colon
HL-60(TB) leukemia = tested on: HL-60(TB) leukemia
DMS 114 small cell lung = tested on: DMS 114 small cell lung
HOP-18 NSCLC = tested on: HOP-18 NSCLC
DMS 273 small cell lung = tested on: DMS 273 small cell lung
CAKI-1 renal = tested on: CAKI-1 renal
OVCAR-3 ovarian = tested on: OVCAR-3 ovarian
NCI-H23 lung = tested on: NCI-H23 lung
786-0 renal = tested on: 786-0 renal
MDA-N = tested on: MDA-N

Molecule `CC1[C@@]2(O[C@@H]3C=C4C5CCC6Cc7nc8c(nc7C[C@@]6(C)C5C[C@H](O)[C@@]4(C)[C@]13O)CC1CCc3c(cc4c5c3C(O)C[C@H]5[C@@H](C)C3(O4)OC(C)(C)CC3O)[C@]1(C)C8)O[C@@](C)(CO)C[C@@H]2O` (some centres not stated) has a TGI (DLD-1 colon) greater than 3.72 µM, a TGI (SNB-78 CNS) of 2.33 µM and a TGI (UO-31 renal) greater than 3.72 µM. For the same molecule, the TGI (M19-MEL melanoma) was greater than 3.72 µM, the TGI (KM20L2 colon) was greater than 3.72 µM and the TGI (XF 498 CNS) was 0.248 µM. For the same molecule, the TGI (COLO 205 colon) was 1.07 µM, the TGI (HL-60(TB) leukemia) was greater than 3.72 µM and the TGI (DMS 114 small cell lung) was greater than 3.72 µM. For the same molecule, the TGI (HOP-18 NSCLC) was greater than 3.72 µM, the TGI (DMS 273 small cell lung) was 0.117 µM and the TGI (CAKI-1 renal) was greater than 3.72 µM. It also gave a TGI (OVCAR-3 ovarian) greater than 3.72 µM.

For `O=[N+]([O-])c1ccc(C[P+]2(c3ccccc3)CCCCC2)cc1` (tested in a mixture with another compound), the TGI (DLD-1 colon) was greater than 100 µM, the TGI (UO-31 renal) was greater than 100 µM and the TGI (NCI-H23 lung) was greater than 100 µM. The TGI (XF 498 CNS) was greater than 100 µM, the TGI (COLO 205 colon) was greater than 100 µM and the TGI (HL-60(TB) leukemia) was greater than 100 µM. For the same molecule, the TGI (DMS 114 small cell lung) was greater than 100 µM, the TGI (786-0 renal) was greater than 100 µM and the TGI (HOP-18 NSCLC) was 65.8 µM. It also gave a TGI (DMS 273 small cell lung) greater than 100 µM, a TGI (CAKI-1 renal) greater than 100 µM and a TGI (OVCAR-3 ovarian) greater than 100 µM.

Molecule `Cc1ccc(C(=O)Nc2ccc(S(=O)(=O)O)c3cc(S(=O)(=O)O)cc(S(=O)(=O)O)c23)cc1NC(=O)c1cccc(NC(=O)Nc2cccc(C(=O)Nc3cc(C(=O)Nc4ccc(S(=O)(=O)O)c5cc(S(=O)(=O)O)cc(S(=O)(=O)O)c45)ccc3C)c2)c1` has a TGI (DLD-1 colon) greater than 100 µM, a TGI (SNB-78 CNS) greater than 100 µM and a TGI (UO-31 renal) of 87.3 µM. For the same molecule, the TGI (NCI-H23 lung) was greater than 100 µM, the TGI (M19-MEL melanoma) was greater than 100 µM and the TGI (KM20L2 colon) was greater than 100 µM. For the same molecule, the TGI (XF 498 CNS) was 90.5 µM, the TGI (COLO 205 colon) was greater than 100 µM and the TGI (MDA-N) was greater than 100 µM. The TGI (HL-60(TB) leukemia) was greater than 100 µM, the TGI (DMS 114 small cell lung) was greater than 100 µM and the TGI (786-0 renal) was greater than 100 µM. The TGI (HOP-18 NSCLC) was greater than 93.3 µM, the TGI (DMS 273 small cell lung) was greater than 100 µM and the TGI (CAKI-1 renal) was greater than 100 µM. It also gave a TGI (OVCAR-3 ovarian) greater than 100 µM.

With `CN(C)CCCNc1ccnc2c([N+](=O)[O-])cccc12` the TGI (SNB-78 CNS) was greater than 100 µM, the TGI (UO-31 renal) was greater than 100 µM and the TGI (NCI-H23 lung) was 31.3 µM. The TGI (M19-MEL melanoma) was 5.82 µM, the TGI (KM20L2 colon) was 16.7 µM and the TGI (XF 498 CNS) was 28.2 µM. For the same molecule, the TGI (COLO 205 colon) was 5.34 µM, the TGI (DMS 114 small cell lung) was 5.56 µM and the TGI (786-0 renal) was greater than 100 µM. It also gave a TGI (DMS 273 small cell lung) of 32.8 µM, a TGI (CAKI-1 renal) greater than 100 µM and a TGI (OVCAR-3 ovarian) greater than 100 µM.

`COc1cc(/C=C/c2ccc(OC)c(OC)c2)oc(=O)c1` was tested, and the TGI (DLD-1 colon) was greater than 250 µM, the TGI (SNB-78 CNS) was greater than 250 µM and the TGI (UO-31 renal) was greater than 250 µM. It also gave a TGI (NCI-H23 lung) greater than 250 µM, a TGI (M19-MEL melanoma) greater than 250 µM and a TGI (KM20L2 colon) greater than 250 µM. It also gave a TGI (XF 498 CNS) greater than 250 µM, a TGI (COLO 205 colon) greater than 250 µM and a TGI (HL-60(TB) leukemia) greater than 184 µM. For the same molecule, the TGI (DMS 114 small cell lung) was greater than 250 µM, the TGI (HOP-18 NSCLC) was greater than 250 µM and the TGI (DMS 273 small cell lung) was greater than 250 µM. For the same molecule, the TGI (CAKI-1 renal) was greater than 114 µM and the TGI (OVCAR-3 ovarian) was greater than 250 µM.

`COc1ccc(C2CC(c3sc(Nc4ccc(C)cc4)nc3C)=NN2)cc1` (configuration not stated) showed a TGI (DLD-1 colon) of 35.7 µM, a TGI (SNB-78 CNS) of 52 µM and a TGI (UO-31 renal) of 29.4 µM. It also gave a TGI (NCI-H23 lung) of 30.7 µM, a TGI (M19-MEL melanoma) greater than 59 µM and a TGI (KM20L2 colon) of 31.3 µM. The TGI (XF 498 CNS) was 36.7 µM, the TGI (COLO 205 colon) was 26.9 µM and the TGI (HL-60(TB) leukemia) was 24.6 µM. It also gave a TGI (DMS 114 small cell lung) of 30 µM, a TGI (HOP-18 NSCLC) of 35.4 µM and a TGI (DMS 273 small cell lung) of 38.5 µM. The TGI (CAKI-1 renal) was 41.2 µM and the TGI (OVCAR-3 ovarian) was 30.1 µM.

In the case of `CCC1(O)C(=O)OCc2c1cc1n(c2=O)Cc2cc3cc4c(cc3nc2-1)OCO4` (configuration not stated), the TGI (DLD-1 colon) is reported as greater than 60.3 µM, the TGI (SNB-78 CNS) is reported as greater than 57.8 µM and the TGI (UO-31 renal) is reported as 0.0512 µM. It also gave a TGI (NCI-H23 lung) of less than 0.0109 µM, a TGI (M19-MEL melanoma) of 0.205 µM and a TGI (KM20L2 colon) of 0.738 µM. It also gave a TGI (XF 498 CNS) of 0.225 µM, a TGI (COLO 205 colon) of 1.79 µM and a TGI (HL-60(TB) leukemia) of 0.479 µM. The TGI (DMS 114 small cell lung) was 0.0284 µM, the TGI (786-0 renal) was 0.102 µM and the TGI (HOP-18 NSCLC) was 0.824 µM. For the same molecule, the TGI (DMS 273 small cell lung) was 0.0151 µM, the TGI (CAKI-1 renal) was 0.046 µM and the TGI (OVCAR-3 ovarian) was 0.589 µM.

With `CC(NC(=O)CCS)C(=O)NC(C)C(=O)NC(Cc1c[nH]c2ccccc12)C(=O)NC(Cc1c[nH]cn1)C(=O)NC(CO)C(=O)NC(Cc1c[nH]c2ccccc12)C(=O)NCCCCC(=O)NC(C)C(=O)NC(CCC(N)=O)C(=O)NC(CCCCN)C(=O)NC(C)C(=O)NC(CCCNC(=N)N)C(=O)NC(CCCCN)C(N)=O` (configuration not stated) ([Mpa]AAWHSW[Ava]AQKARK-NH2; configuration not given here) the TGI (UO-31 renal) was greater than 100 µM, the TGI (NCI-H23 lung) was greater than 100 µM and the TGI (COLO 205 colon) was greater than 100 µM. For the same molecule, the TGI (MDA-N) was greater than 100 µM, the TGI (HL-60(TB) leukemia) was 65.4 µM and the TGI (786-0 renal) was greater than 100 µM. It also gave a TGI (CAKI-1 renal) greater than 100 µM and a TGI (OVCAR-3 ovarian) greater than 100 µM.

`CC1=NNC(=O)C1C1(C(=O)O)CC(c2c[nH]c3ccccc23)=NC(=S)N1` (configuration not stated) was tested, and the TGI (UO-31 renal) was greater than 100 µM, the TGI (NCI-H23 lung) was 56.8 µM and the TGI (COLO 205 colon) was 34.1 µM. For the same molecule, the TGI (MDA-N) was greater than 100 µM, the TGI (HL-60(TB) leukemia) was 90.1 µM and the TGI (786-0 renal) was greater than 100 µM. The TGI (CAKI-1 renal) was greater than 100 µM and the TGI (OVCAR-3 ovarian) was 65.8 µM.

`COc1ccc(-c2c(C#N)c(N)[nH]c(=S)c2C#N)cc1` gave a TGI (UO-31 renal) greater than 100 µM, a TGI (NCI-H23 lung) greater than 100 µM and a TGI (COLO 205 colon) greater than 100 µM. The TGI (MDA-N) was 28.5 µM, the TGI (HL-60(TB) leukemia) was 69.2 µM and the TGI (786-0 renal) was 47.3 µM. For the same molecule, the TGI (CAKI-1 renal) was greater than 100 µM and the TGI (OVCAR-3 ovarian) was greater than 100 µM.

For `CCO/N=C\c1ccc2oc(-c3ccccc3)cc(=O)c2c1`, the TGI (UO-31 renal) was 5.83 µM, the TGI (NCI-H23 lung) was 9.05 µM and the TGI (COLO 205 colon) was 0.526 µM. The TGI (MDA-N) was 0.105 µM, the TGI (HL-60(TB) leukemia) was 12.2 µM and the TGI (786-0 renal) was 17.7 µM. The TGI (CAKI-1 renal) was 41.7 µM and the TGI (OVCAR-3 ovarian) was 0.913 µM.

Molecule `CS(=O)(=O)OCCN(CCOS(C)(=O)=O)c1ccc(C=Nc2ccc(-c3csc(Cc4ccccc4)n3)cc2)c(Cl)c1` has a TGI (UO-31 renal) greater than 85.8 µM, a TGI (NCI-H23 lung) of 70.6 µM and a TGI (COLO 205 colon) of 36 µM. It also gave a TGI (MDA-N) greater than 76.3 µM, a TGI (HL-60(TB) leukemia) of 35.7 µM and a TGI (786-0 renal) greater than 68.3 µM. For the same molecule, the TGI (CAKI-1 renal) was 13.5 µM and the TGI (OVCAR-3 ovarian) was greater than 63.7 µM.

`CCC1c2[nH]c3ccccc3c2C[C@H]2C(=O)NC(C)C(=O)N12` (some centres not stated) showed a TGI (UO-31 renal) greater than 100 µM, a TGI (NCI-H23 lung) greater than 100 µM and a TGI (COLO 205 colon) greater than 100 µM. It also gave a TGI (MDA-N) greater than 100 µM, a TGI (HL-60(TB) leukemia) greater than 100 µM and a TGI (786-0 renal) greater than 100 µM. The TGI (CAKI-1 renal) was greater than 100 µM and the TGI (OVCAR-3 ovarian) was greater than 100 µM.

`O=C(CC(C(=O)c1ccsc1)c1cccs1)c1ccccc1` (configuration not stated) gave a TGI (UO-31 renal) of 76.3 µM, a TGI (NCI-H23 lung) of 93.3 µM and a TGI (COLO 205 colon) greater than 100 µM. For the same molecule, the TGI (MDA-N) was greater than 100 µM, the TGI (HL-60(TB) leukemia) was greater than 100 µM and the TGI (786-0 renal) was greater than 100 µM. For the same molecule, the TGI (CAKI-1 renal) was greater than 100 µM and the TGI (OVCAR-3 ovarian) was greater than 100 µM.
